Laboratory results: patent US20090227647A1, “Compounds, Compositions and Methods for the Treatment of Islet Amyloid Polypeptide (IAPP) Accumulation in Diabetes” (priority 2008, published 2009)

What was measured:
[1] = molecular target: T1, pre-fibrillized Amylin/IAPP fibrils (Homo sapiens, UniProt P10997); experiment: Thioflavin T fluorometry, disruption/disassembly of pre-formed Amylin/IAPP fibrils; type: biochemical; conditions: for % Inhibition Amylin/IAPP (result ± S.D.), Thioflavin T fluorometry: 3-day incubation at 37° C.; for disruption/disassembly of preformed Amylin/IAPP fibrils (result in words), Thioflavin T fluorometry: all concentrations tested (wt/wt ratios 1:1 to 1:0.001)
T1 construct: purchased Bachem Inc
T1 sequence (P10997 34-70 limits assumed): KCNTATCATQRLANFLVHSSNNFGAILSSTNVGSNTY
Method: The biological activity of the compounds provided herein as disruptors/inhibitors of IAPP amyloid protein fibrils, was assessed by determining the efficacy of the compounds to cause a disassembly/disruption of pre-formed IAPP amyloid fibrils. […] In this assay Thioflavin T binds specifically to fibrillar amyloid, and this binding produces a fluorescence enhancement at 485 nm that is directly proportional to the amount of fibrils present. The higher the fluorescence, the greater the amount of fibrils present (Naki et al, Lab. Invest. 65:104-110, 1991; Levine III, Protein Sci. 2:404-410, 1993; Amyloid: Int. J. Exp. Clin. Invest. 2:1-6, 1995).
In this assay Thioflavin T binds specifically to fibrillar amyloid, and this binding produces a fluorescence enhancement at 485 nm that is directly proportional to the amount of amyloid fibrils formed. The higher the fluorescence, the greater the amount of amyloid fibrils formed (Naki et al., Lab. Invest. 65:104-110, 1991; Levine III, Protein Sci. 2:404-410, 1993; Amyloid: Int. J. Exp. Clin. Invest. 2:1-6, 1995). The same premise is applied to Amylin/IAPP fibrils.
Following 3-days of co-incubation, 50 μl of each incubation mixture was transferred into a 96-well microtiter plate containing 150 μl of distilled water and 50 μl of a Thioflavin T solution (i.e. 500 mM Thioflavin T in 250 mM phosphate buffer, pH 6.8). The fluorescence was read at 485 nm (444 nm excitation wavelength) using an ELISA plate fluorometer after subtraction with buffer alone or compound alone, as blank.

Amylin/IAPP fibrils = molecular target: T2, Amylin/IAPP fibrils (Homo sapiens, UniProt P10997); experiment: Congo red binding assay, Amylin/IAPP fibrils; type: biochemical; conditions: 3-day incubation
T2 sequence (P10997 34-70 limits assumed): T1 sequence (P10997 34-70 limits assumed)
Method: In the Congo red binding assay the ability of a given test compound to alter amyloid binding to Congo red was quantified. In this assay, IAPP fibrils and test compounds were incubated for 3 days and then vacuum filtered through a 0.2 μm filter. The amount of IAPP fibrils retained in the filter was then quantitated following staining of the filter with Congo red. After appropriate washing of the filter, any lowering of the Congo red color on the filter in the presence of the test compound (compared to the Congo red staining of the amyloid protein in the absence of the test compound) was indicative of the test compound's ability to diminish/alter the amount of aggregated and congophilic IAPP fibrils.
In the Congo red binding assay the ability of a test compound to alter Amylin/IAPP binding to Congo red is quantified. In this assay, Amylin/IAPP and test compounds were incubated for 3 days and then vacuum filtered through a 0.2 μm filter. The amount of Amylin/IAPP retained in the filter was then quantitated following staining of the filter with Congo red. After appropriate washing of the filter, any lowering of the Congo red color retained on the filter in the presence of the test compound (compared to the Congo red staining of the Amylin/IAPP protein in the absence of the test compound) was indicative of the test compound's ability to diminish/alter the amount of aggregated and/or congophilic Amylin/IAPP.

[2] = Amylin/IAPP:test compound wt/wt ratio 1:0.001
[3] = Amylin/IAPP:test compound wt/wt ratio 1:0.01
[4] = Amylin/IAPP:test compound wt/wt ratio 1:0.1
[5] = Amylin/IAPP:test compound wt/wt ratio 1:1

Row | % Inhibition Amylin/IAPP (result ± S.D.), Thioflavin T fluorometry [1, 2] [%] | % Inhibition Amylin/IAPP (result ± S.D.), Thioflavin T fluorometry [1, 3] [%] | % Inhibition Amylin/IAPP (result ± S.D.), Thioflavin T fluorometry [1, 4] [%] | % Inhibition Amylin/IAPP (result ± S.D.), Thioflavin T fluorometry [1, 5] [%] | disruption/disassembly of preformed Amylin/IAPP fibrils (result in words), Thioflavin T fluorometry [1] | % Inhibition Amylin/IAPP (result ± S.D.), Congo red binding (Amylin/IAPP fibrils; [2]) [%] | % Inhibition Amylin/IAPP (result ± S.D.), Congo red binding (Amylin/IAPP fibrils; [3]) [%] | % Inhibition Amylin/IAPP (result ± S.D.), Congo red binding (Amylin/IAPP fibrils; [4]) [%] | % Inhibition Amylin/IAPP (result ± S.D.), Congo red binding (Amylin/IAPP fibrils; [5]) [%] | Structure (SMILES)
1 | 5.0 ± 6.78 | 51.7±3.56 | 94.5±0.91 | 99.3 ± 0.6 | most efficacious | 7.1 ± 4.14 | 3.6 ± 1.16 | 26.0 ± 5.79 | 60.1 ± 3.78 | O=C(Nc1cccc(O)c1O)c1cccc(O)c1O [Compound 3, 2,3 dihydroxybenzoic Acid 2,3 Dihydroxyanilide]
2 | 5.1 ± 4.57 | 52.9 ± 4.36 | 92.6 ± 0.84 | 99.4 ± 1.69 | – | 5.3 ± 6.75 | 5.2 ± 0.23 | 33.5 ± 6.38 | 45.8 ± 1.62 | O=C(Nc1cccc(O)c1O)c1ccc(O)c(O)c1 [Compound 2, 3,4 dihydroxybenzoic Acid 2,3 Dihydroxyanilide]
3 | 8.1 ± 1.54 | 48.4 ± 0.31 | 91.2 ± 0.76 | 99.0 ± 1.05 | – | 1.7 ± 1.98 | 20.2 ± 7.11 | 39.7 ± 7.20 | 74.9 ± 1.26 | Oc1ccc(-c2cc(-c3ccc(O)c(O)c3)[nH]n2)cc1O [Compound 8, 3,5 bis(3,4 Dihydroxyphenyl)Pyrazole]
4 | 14.3 ± 3.56 | 60.9±0.61 | 95.1±0.48 | 98.5 ± 0.26 | most efficacious | 0.0 ± 6.44 | 7.8 ± 6.13 | 35.7 ± 5.12 | 58.1 ± 6.67 | O=C(Nc1ccc(O)c(O)c1)c1cccc(O)c1O [Compound 1, 2,3 dihydroxybenzoic Acid 3,4 Dihydroxyanilide]

The remaining lines, values behind:

Row | Structure (SMILES) | % Inhibition Amylin/IAPP (result ± S.D.), Thioflavin T fluorometry [1, 2] [%] | % Inhibition Amylin/IAPP (result ± S.D.), Thioflavin T fluorometry [1, 3] [%] | % Inhibition Amylin/IAPP (result ± S.D.), Thioflavin T fluorometry [1, 4] [%] | % Inhibition Amylin/IAPP (result ± S.D.), Thioflavin T fluorometry [1, 5] [%] | disruption/disassembly of preformed Amylin/IAPP fibrils (result in words), Thioflavin T fluorometry [1] | % Inhibition Amylin/IAPP (result ± S.D.), Congo red binding (Amylin/IAPP fibrils; [2]) [%] | % Inhibition Amylin/IAPP (result ± S.D.), Congo red binding (Amylin/IAPP fibrils; [3]) [%] | % Inhibition Amylin/IAPP (result ± S.D.), Congo red binding (Amylin/IAPP fibrils; [4]) [%] | % Inhibition Amylin/IAPP (result ± S.D.), Congo red binding (Amylin/IAPP fibrils; [5]) [%]
5 | Oc1ccc(-c2cnc(-c3ccc(O)c(O)c3)[nH]2)cc1O [Compound 6, 2,4 bis(3,4 dihydroxyphenyl) Imidazole] | 17.2 ± 4.22 | 68.9±3.33 | 96.3±0.76 | 100.0 ± 0.26 | most efficacious | 5.2 ± 2.31 | 1.0 ± 4.82 | 36.4 ± 12.77 | 80.7 ± 0.75
6 | Oc1ccc(-c2nnc(-c3ccc(O)c(O)c3)[nH]2)cc1O [Compound 7, 3,5 bis(3,4 Dihydroxyphenyl) 1,2,4 Triazole] | 4.6 ± 4.34 | 41.4 ± 2.13 | 89.7 ± 0.54 | 99.8 ± 0.31 | – | 9.1 ± 1.29 | – | 44.1 ± 5.62 | 66.2±7.81
7 | O=S(=O)(Nc1ccc(O)c(O)c1)c1ccc(O)c(O)c1 [Compound 5, 3,4 Dihydroxybenzenesulfonic acid 3,4 Dihydroxysulfonamide] | 14.1 ± 1.62 | 56.7±0.4 | 93.7±1.13 | 99.7 ± 0.38 | most efficacious | 3.5 ± 2.40 | 8.3 ± 6.91 | 43.4 ± 3.39 | 54.6 ± 14.22
8 | Oc1ccc(C23CC4CC(C2)CC(c2ccc(O)c(O)c2)(C4)C3)cc1O [Compound 9, 1,3 bis(3,4 dihydroxyphenyl) Adamantane] | 4.3 ± 2.29 | 36.6 ± 3.55 | 88.5 ± 0.31 | 97.6 ± 0.31 | – | 16.5 ± 9.88 | 12.0 ± 8.03 | 41.2 ± 5.64 | 88.6 ± 2.08
9 | CN(C(=O)c1ccc(O)c(O)c1)c1ccc(O)c(O)c1 [Compound 4, 3,4 Dihydroxybenzoic Acid 3,4 Dihydroxy N-methyl Anilide] | 9.8 ± 7.47 | 57.4±1.61 | 95.4±0.23 | 100.0 ± 0.09 | most efficacious | 0.0 ± 7.35 | 8.0 ± 4.62 | 46.0±7.43 | 70.8±1.55
